From PubChem BioAssay AID1845213 (Molecular Pharmacology Branch, DTP, NCI, 2023)

Tested on: NCI-H841 complex tumor spheroid viability
Test: Anticancer human tumor NCI-H841 cell line growth inhibition;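 also: spheroids exposed to compounds for 7 days before readout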;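 as to viability, T/C: 100% = DMSO vehicle control wells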
Settings: for IC50: curve of first compound; for viability, T/C: stronger effect = lower value
Source text: Multicellular complex tumor spheroid response to DNA repair inhibitors in combination with DNA-damaging drugs
This study explores the anticancer activities of DNA-damaging drugs and inhibitors of DNA damage repair, both as single agents and in combinations. Complex tumor spheroids comprised of malignant cells, endothelial cells and mesenchymal stem cells served as an in vitro model for human solid tumors. This model system incorporates physiologically relevant features and patient-derived or established malignant cell lines with clinically relevant genetic alterations from many tumor types. Twenty-six patient-derived or established malignant cell lines were evaluated representing sarcoma, melanoma, small cell lung cancer (SCLC), non-small cell lung cancer (NSCLC), as well as bladder, ovarian and pancreatic cancers. The concentration ranges selected for each drug and investigational agent were based upon clinically achievable concentrations if the clinical Cmax of the agent was known.
Compounds. The drugs and compounds olaparib (NSC753686), talazoparib (NSC767125), berzosertib (NSC777718), elimusertib (NSC800525), nedisertib (NSC802822), VX-984 (NSC792969), AZD-1390 (NSC803789), temozolomide (NSC362856), topotecan (NSC609699), trabectedin (NSC813783), staurosporine (NSC755774), and gemcitabine (NSC613327) were obtained from the National Cancer Institute (NCI) Developmental Therapeutics Program Chemical Repository. The FDA-approved anticancer drug set is available from the Developmental Therapeutics Program at https://dtp.cancer.gov/organization/dscb/obtaining/available_plates.htm. […] The stock solutions were prepared in dimethyl sulfoxide (DMSO, Sigma-Aldrich, St. Louis, MO, cat. D2650) at 400-fold the tested concentration and stored at -70 degrees C. Prior to their use, the stock solutions were diluted in fresh medium and the final DMSO concentration in the assay was 0.25% (v/v). All drugs and investigational agents were tested over a range starting from a high concentration at or near the clinical Cmax and decreasing in half-log increments. If the clinical Cmax for an agent had not been determined, the highest concentration tested was 10 microM.
Cell Lines. The patient-derived cancer cell (PDC) lines: 156681-154-R-J1-PDC, 283228-195-R-J1-PDC, 287954-098-R-J1-PDC, 292921-168-R-J2-PDC, 349418-098-R-PDC, 425362-245-T-J1-PDC, 556581-035-R-J1-PDC, and BL0293-F563-PDC were received from the NCI Patient-Derived Models Repository (PDMR, https://pdmr.cancer.gov). The established cell lines HS-SY-2 (RRID:CVCL_8719), MPNST, and SYO-1 (RRID:CVCL_7146) were obtained from the Sloan Kettering Institute. The alveolar soft parts sarcoma cell line ASPS-1 (RRID:CVCL_S738) was established at the NCI and grown from internal seed stocks. The following established cell lines were purchased from the American Type Culture Collection (ATCC, Manassas, VA): G-401 (ATCC, cat. CRL-1441, RRID:CVCL_0270), SW982 (ATCC, cat. HTB-93, RRID:CVCL_1734), VA-ES-BJ (ATCC, cat. CRL-2138, RRID:CVCL_1785), NCI-H719 (ATCC, cat. CRL-5837, RRID:CVCL_1582), NCI-H196 (ATCC, cat. CRL-5823, RRID:CVCL_1509), NCI-H841 (ATCC, cat. CRL-5845, RRID:CVCL_1595), NCI-H1618 (ATCC, cat. CRL-5879, RRID:CVCL_1480), NCI-H1876 (ATCC, cat. CRL-5902, RRID:CVCL_1503), DMS 114 (ATCC, cat. CRL-2066; RRID:CVCL_1174), NCI-H211 (ATCC, cat. CRL-5824; RRID:CVCL_1529), and SW 1271 (ATCC, cat. CRL-2177, RRID:CVCL_1716). The small cell lung cancer cell line COR-L88 was purchased from Sigma-Aldrich (cat. 92031917-1VL, RRID:CVCL_1141). The non-small cell lung cancer cell lines NCI-H226 (RRID:CVCL_1544) and NCI-H322M (RRID:CVCL_1557) were established at the NCI and grown from internal seed stocks. Pooled donor human umbilical vein endothelial cells (HUVEC, Lonza, cat. CC-2519) and human mesenchymal stem cells (hMSC, Lonza, cat. PT-2501) were purchased from Lonza (Walkersville, MD).
Cell Culture. All cells were maintained in an incubator at 37 degrees C and 5% CO2 with 95% humidity. […]

SMILES: Cc1cc(C)c(CNC(=O)c2cc(-c3ccc(CN4CCOCC4)cc3)cc3c2cnn3C2CCCC2)c(=O)[nH]1 + CC[C@@]1(O)C(=O)OCc2c1cc1n(c2=O)Cc2cc3c(CN(C)C)c(O)ccc3nc2-1
- IC50 (second compound 0.003 µM): 5.6 µM
- IC50 (second compound 0.00949 µM): 0.713 µM
- IC50 (second compound 0.03 µM): < 0.0316 µM
- IC50 (second compound 0.0949 µM): < 0.0316 µM
- IC50 (second compound 0.3 µM): < 0.0316 µM
- viability, T/C (second compound 0.003 µM, first compound 0.0316 µM): 93.6%
- viability, T/C (second compound 0.003 µM, first compound 0.1 µM): 94.4%
- viability, T/C (second compound 0.003 µM, first compound 0.316 µM): 91.9%
- viability, T/C (second compound 0.003 µM, first compound 1 µM): 83.5%
- viability, T/C (second compound 0.003 µM, first compound 3.16 µM): 65.2%
- viability, T/C (second compound 0.003 µM, first compound 10 µM): 34.7%
- viability, T/C (second compound 0.00949 µM, first compound 0.0316 µM): 69.6%
- viability, T/C (second compound 0.00949 µM, first compound 0.1 µM): 60.8%
- viability, T/C (second compound 0.00949 µM, first compound 0.316 µM): 63.4%
- viability, T/C (second compound 0.00949 µM, first compound 1 µM): 44.7%
- viability, T/C (second compound 0.00949 µM, first compound 3.16 µM): 21.7%
- viability, T/C (second compound 0.00949 µM, first compound 10 µM): 9.9%
- viability, T/C (second compound 0.03 µM, first compound 0.0316 µM): 2.88%
- viability, T/C (second compound 0.03 µM, first compound 0.1 µM): 2.59%
- viability, T/C (second compound 0.03 µM, first compound 0.316 µM): 2.6%
- viability, T/C (second compound 0.03 µM, first compound 1 µM): 1.45%
- viability, T/C (second compound 0.03 µM, first compound 3.16 µM): 1.14%
- viability, T/C (second compound 0.03 µM, first compound 10 µM): 1.49%
- viability, T/C (second compound 0.0949 µM, first compound 0.0316 µM): 1.83%
- viability, T/C (second compound 0.0949 µM, first compound 0.1 µM): 1.47%
- viability, T/C (second compound 0.0949 µM, first compound 0.316 µM): 1.42%
- viability, T/C (second compound 0.0949 µM, first compound 1 µM): 1.4%
- viability, T/C (second compound 0.0949 µM, first compound 3.16 µM): 1.41%
- viability, T/C (second compound 0.0949 µM, first compound 10 µM): 1.58%
- viability, T/C (second compound 0.3 µM, first compound 0.0316 µM): 7.2%
- viability, T/C (second compound 0.3 µM, first compound 0.1 µM): 1.62%
- viability, T/C (second compound 0.3 µM, first compound 0.316 µM): 1.88%
- viability, T/C (second compound 0.3 µM, first compound 1 µM): 1.53%
- viability, T/C (second compound 0.3 µM, first compound 3.16 µM): 1.17%
- viability, T/C (second compound 0.3 µM, first compound 10 µM): 4.17%
